Experimental data from the supplement of paper PMC10307832.

Assays:
Test in all cases: relative viability (nuclei count vs DMSO), 5 days (fraction); higher = more cells survive
[1] = compound: CC1(COc2ccc3c(c2)ncn3-c2ccc3cccc(N4CCC(N)CC4)c3n2)COC1 [Crenolanib] + Cc1cc(Nc2cc(N3CCN(C)CC3)nc(Sc3ccc(NC(=O)C4CC4)cc3)n2)n[nH]1 [Tozasertib] (partner 0.1 µM)
How it was run: (§1)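 Relative viability equals treated-well nuclei counts divided by vehicle-well nuclei counts. Counts came from 4× images of lung cancer cell lines grown in 1536-well plates for 5 days after pin-tool dosing on the day after seeding. Dosing used one drug alone or a fixed anchor-drug dose plus five library-drug doses (not always all listed) in √10 steps, and values are medians of duplicate plates.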

[2] = compound: CC1(COc2ccc3c(c2)ncn3-c2ccc3cccc(N4CCC(N)CC4)c3n2)COC1 [Crenolanib] + O=C(c1cc(Cc2n[nH]c(=O)c3ccccc23)ccc1F)N1CCN(C(=O)C2CC2)CC1 [Olaparib] (partner 8 µM)
How it was run: as §1

[3] = compound: CC1(COc2ccc3c(c2)ncn3-c2ccc3cccc(N4CCC(N)CC4)c3n2)COC1 [Crenolanib] + CS(=O)(=O)CCNCc1ccc(-c2ccc3ncnc(Nc4ccc(OCc5cccc(F)c5)c(Cl)c4)c3c2)o1 [Lapatinib] (partner 2 µM)
How it was run: as §1

[4] = compound: CC1(COc2ccc3c(c2)ncn3-c2ccc3cccc(N4CCC(N)CC4)c3n2)COC1 [Crenolanib] + CC(C)C[C@H](NC(=O)[C@H](Cc1ccccc1)NC(=O)c1cnccn1)B(O)O [Bortezomib] (partner 0.002 µM)
How it was run: as §1

Cell Line | relative viability ([1]; first compound 0.01 µM) | relative viability ([1]; first compound 0.03162 µM) | relative viability ([1]; first compound 0.1 µM) | relative viability ([1]; first compound 0.3162 µM) | relative viability ([1]; first compound 1 µM) | relative viability ([2]; first compound 0.01 µM) | relative viability ([2]; first compound 0.03162 µM) | relative viability ([2]; first compound 0.1 µM) | relative viability ([2]; first compound 0.3162 µM) | relative viability ([2]; first compound 1 µM) | relative viability ([3]; first compound 0.01 µM) | relative viability ([3]; first compound 0.03162 µM) | relative viability ([3]; first compound 0.1 µM) | relative viability ([3]; first compound 0.3162 µM) | relative viability ([3]; first compound 1 µM) | relative viability ([4]; first compound 0.01 µM) | relative viability ([4]; first compound 0.03162 µM) | relative viability ([4]; first compound 0.1 µM) | relative viability ([4]; first compound 0.3162 µM) | relative viability ([4]; first compound 1 µM)
NCI-H1651 | 0.649 | 0.716 | 0.592 | 0.852 | 0.61 | 0.177 | 0.186 | 0.198 | 0.171 | 0.166 | 0.83 | 0.979 | 0.9 | 0.945 | 0.767 | 0.982 | 0.894 | 0.904 | 0.926 | 0.913
BEN | 0.524 | 0.476 | 0.474 | 0.484 | 0.464 | 1.15 | 0.96 | 0.966 | 1.01 | 1.05 | 0.808 | 0.552 | 0.746 | 0.685 | 0.68 | 0.821 | 0.644 | 0.733 | 0.881 | 0.761
EMC-BAC-2 | 0.312 | 0.251 | 0.322 | 0.239 | 0.309 | 0.559 | – | 0.466 | 0.532 | 0.462 | 0.912 | 0.862 | 0.882 | 0.931 | 0.81 | 1.19 | 1.03 | 1.01 | 1.18 | 1.01
LXF-289 | 0.183 | 0.222 | 0.201 | 0.181 | 0.176 | 1.08 | 0.954 | 1 | 1.16 | 1.08 | 0.887 | 0.918 | 0.889 | 0.908 | 0.838 | 1.07 | 0.996 | 0.935 | 1 | 0.95
ABC-1 | 0.177 | 0.202 | 0.179 | 0.162 | 0.133 | 1.01 | 0.78 | 0.614 | 0.668 | 0.625 | 1.23 | 1.02 | 1.28 | 1.1 | 1.23 | 0.289 | 0.353 | 0.331 | 0.308 | 0.253
NCI-H2170 | 0.747 | 0.857 | 0.69 | 0.648 | 0.769 | 0.608 | 0.674 | 0.54 | 0.711 | 0.671 | 0.272 | 0.283 | 0.281 | 0.276 | 0.247 | – | – | – | – | –
EBC-1 | – | – | – | – | – | 0.768 | 0.727 | 0.667 | 0.663 | 0.641 | 0.212 | 0.213 | 0.22 | 0.202 | 0.215 | 0.798 | 0.581 | 0.573 | 0.559 | 0.462
NCI-H441 | 0.68 | 0.82 | 0.643 | 0.717 | 0.663 | 0.602 | 0.524 | 0.608 | 0.56 | 0.535 | – | – | – | – | – | 0.29 | – | 0.535 | 0.446 | 0.557
NCI-H1563 | – | – | – | – | – | – | – | – | – | – | 0.818 | 0.97 | 0.937 | 0.998 | 0.849 | 0.926 | 0.901 | 0.897 | 0.865 | 0.829
NCI-H2342 | 0.546 | 0.496 | 0.682 | 0.483 | 0.454 | 0.445 | 0.484 | 0.411 | 0.445 | 0.494 | – | – | – | – | – | – | – | – | – | –
ChaGo-K-1 | 0.26 | 0.264 | 0.234 | 0.209 | 0.22 | 0.398 | 0.406 | 0.426 | 0.422 | 0.45 | – | – | – | – | – | 1.07 | 0.769 | 0.941 | 0.969 | 0.971
LK-2 | 0.164 | 0.179 | 0.19 | 0.177 | 0.171 | 0.837 | 0.572 | 0.655 | 1.06 | 0.585 | 0.942 | 0.812 | 0.935 | 0.938 | 0.851 | – | – | – | – | –
NCI-H1944 | 0.251 | 0.248 | 0.261 | 0.242 | 0.234 | 0.404 | 0.387 | 0.412 | 0.413 | 0.397 | 0.814 | 0.809 | 0.839 | 0.617 | 0.698 | – | – | – | – | –
NCI-H1793 | 0.368 | 0.362 | 0.396 | 0.226 | 0.422 | 0.993 | 0.947 | 0.889 | 1.13 | 0.762 | 0.767 | 0.799 | 0.475 | 0.855 | 0.645 | – | – | – | – | –
A549 | – | – | – | – | – | 0.474 | 0.317 | 0.329 | 0.421 | 0.365 | 1.12 | 1.1 | 0.948 | 1.23 | 1.1 | – | – | – | – | –
NCI-H358 | 0.0999 | 0.097 | 0.0998 | 0.0966 | 0.12 | 0.641 | 0.594 | 0.529 | 0.678 | 0.603 | 0.468 | 0.461 | 0.44 | 0.45 | 0.312 | – | – | – | – | –
NCI-H1395 | 0.742 | 0.759 | 0.81 | 0.691 | 0.659 | 0.495 | 0.453 | 0.543 | 0.439 | 0.45 | 1.02 | 1.06 | 0.915 | 0.942 | 0.971 | – | – | – | – | –
NCI-H1299 | – | – | – | – | – | 0.965 | 0.921 | 0.916 | 0.978 | 0.935 | 0.928 | 1.01 | 0.905 | 0.862 | 0.887 | 1.04 | 1.02 | 0.968 | 1.04 | 1.03
SW 900 | 0.62 | 0.675 | 0.547 | 0.457 | 0.516 | 0.925 | – | 0.8 | 0.959 | 0.979 | – | – | – | – | – | – | – | – | – | –
NCI-H1792 | – | – | – | – | – | 0.439 | 0.397 | 0.334 | 0.757 | 0.384 | 0.977 | 0.851 | 0.835 | 1.09 | 0.874 | 1.03 | 0.882 | 0.879 | 1.13 | 0.94
IA-LM | – | – | – | – | – | 0.847 | 0.907 | 0.88 | 0.817 | 0.883 | 0.741 | 0.951 | 0.732 | 0.978 | 1.51 | 0.806 | 0.771 | 0.726 | 0.949 | 0.978
NCI-H1648 | 0.496 | 0.51 | 0.602 | 0.387 | 0.408 | 1.08 | – | 0.717 | 0.899 | 0.853 | – | – | – | – | – | – | – | – | – | –
